For 1 molecule, Ki results are on record in BindingDB's records for doi:10.1016/0960-894X(95)00055-X (1995).

The target of this experiment is Trehalase (Sus scrofa). Put plainly: Evaluated for the inhibition of trehalase from porcine kidneys.

For the molecule `OCC1=CC(NC2COC(CO)C(O)C2O)C(O)C(O)C1O` (stereo unspecified) [6-(4,5-Dihydroxy-6-hydroxymethyl-tetrahydro-pyran-3-ylamino)-4-hydroxymethyl-cyclohex-4-ene-1,2,3-triol], the Ki (commonly the equilibrium dissociation constant of an inhibitor or competing ligand from its target) is 180 nM.
